In US8603986B2, “Compounds and methods for modulating cadherin-mediated processes” (McGill University, priority 2005, dated 2013):
Entries after “also recorded” stand apart in the source; their conditions may differ. Marks after values point to notes of the source that are not given here.

Assays:
[1] = molecular target: T1, N-cadherin/Fc chimeric protein (Homo sapiens, UniProt P19022); assay: Cadherin/Fc binding assay: phage ELISA on N-cadherin/Fc; parameters: key to ELISA Phage Binding to N-Cadherin/Fc Chimeric Protein 1.2 mM calcium / ELISA Phage Binding to N-Cadherin/Fc Chimeric Protein 2 mM EDTA / ELISA Phage Binding to Cadherin/Fc Chimeric Proteins N−: +: Phage bound to the chimeric protein; −: No phage bound to the chimeric protein
T1 construct: extracellular domain of human N-cadherin (Asp160-Ala724); purchased R&D Systems, Minneapolis, Minn
T1 sequence (P19022 160-724): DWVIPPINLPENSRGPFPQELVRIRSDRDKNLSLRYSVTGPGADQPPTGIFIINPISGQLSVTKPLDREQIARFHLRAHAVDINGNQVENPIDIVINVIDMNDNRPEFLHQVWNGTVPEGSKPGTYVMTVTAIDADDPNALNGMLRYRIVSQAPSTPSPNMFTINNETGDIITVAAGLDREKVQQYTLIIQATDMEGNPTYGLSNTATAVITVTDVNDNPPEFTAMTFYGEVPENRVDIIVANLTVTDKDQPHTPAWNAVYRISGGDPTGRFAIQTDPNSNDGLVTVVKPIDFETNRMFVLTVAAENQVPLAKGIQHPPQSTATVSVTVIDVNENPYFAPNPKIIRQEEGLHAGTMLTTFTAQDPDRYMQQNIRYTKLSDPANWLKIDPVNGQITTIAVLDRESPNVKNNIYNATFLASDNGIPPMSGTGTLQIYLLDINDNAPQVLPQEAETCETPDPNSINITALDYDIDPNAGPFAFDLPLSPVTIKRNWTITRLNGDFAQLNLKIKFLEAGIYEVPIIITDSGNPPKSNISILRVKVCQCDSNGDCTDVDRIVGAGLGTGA
Source text: (§1) The peptide libraries, Ph.D.-C7C™ and Ph.D.-12™ (New England BioLabs) were used in this study. These libraries are composed of 2×10^9 randomized 7 amino acid sequences flanked by cysteine residues and linear 12 amino acid sequences, respectively. The amino acid sequences are incorporated into the minor coat protein, pIII, of M13 phage. The N-cadherin/Fc chimeric protein (R&D Systems, Minneapolis, Minn.) consists of the extracellular domain of human N-cadherin (Asp160-Ala724) and the Fc region of human IgG1. The E-cadherin/Fc chimeric protein (R&D Systems, Minneapolis, Minn.) consists of the extracellular domain of human E-cadherin (Asp155-Ile707) and the Fc region of human IgG1.
The binding of each clone to the cadherin/Fc chimeric proteins was confirmed by ELISA. Wells of ProBind microtiter plates (Falcon) were coated with either N-cadherin/Fc or E-cadherin/Fc chimeric protein (100 ng/well) or human IgG1 (which contains the Fc fragment) (100 ng/well). […] Non-coated wells were also used to exclude any phage that bound to the plastic surface. […] M13 phage without any insert were used to control the non-specific binding of the phage itself to the target. […] […] Horseradish peroxidase substrate, TMB (Sigma), was added to each well (100 μl/well and after color development the reaction was stopped by addition of 100 μl 0.5 M sulphuric acid to each well. The intensity of the color was measured at 450 nm.
(§2) The phage clones shown to bind to the N-cadherin/Fc chimeric protein by ELISA were also evaluated for their ability to bind to E-cadherin/Fc and VE-cadherin/Fc chimeric proteins. The phage clones shown to bind to the E-cadherin/Fc chimeric protein by ELISA were also evaluated for their ability to bind to N-cadherin/Fc and VE-cadherin/Fc chimeric proteins. The same ELISA protocol described in the previous section was used to perform this evaluation with the exception that the wells were coated with either 100 ng N-cadherin/Fc, E-cadherin/Fc or VE-cadherin/Fc chimeric protein (R&D Systems, Minneapolis, Minn.).

[2] = molecular target: T2, VE-cadherin/Fc chimeric protein (Homo sapiens, UniProt P33151); assay: Cadherin specificity: phage ELISA on VE-cadherin/Fc; format: binding; parameters: key: +: Phage bound to the chimeric protein; −: No phage bound to the chimeric protein
T2 construct: purchased R&D Systems, Minneapolis, Minn
T2 sequence (P33151 with tags, fused parts or gaps limits assumed, species assumed): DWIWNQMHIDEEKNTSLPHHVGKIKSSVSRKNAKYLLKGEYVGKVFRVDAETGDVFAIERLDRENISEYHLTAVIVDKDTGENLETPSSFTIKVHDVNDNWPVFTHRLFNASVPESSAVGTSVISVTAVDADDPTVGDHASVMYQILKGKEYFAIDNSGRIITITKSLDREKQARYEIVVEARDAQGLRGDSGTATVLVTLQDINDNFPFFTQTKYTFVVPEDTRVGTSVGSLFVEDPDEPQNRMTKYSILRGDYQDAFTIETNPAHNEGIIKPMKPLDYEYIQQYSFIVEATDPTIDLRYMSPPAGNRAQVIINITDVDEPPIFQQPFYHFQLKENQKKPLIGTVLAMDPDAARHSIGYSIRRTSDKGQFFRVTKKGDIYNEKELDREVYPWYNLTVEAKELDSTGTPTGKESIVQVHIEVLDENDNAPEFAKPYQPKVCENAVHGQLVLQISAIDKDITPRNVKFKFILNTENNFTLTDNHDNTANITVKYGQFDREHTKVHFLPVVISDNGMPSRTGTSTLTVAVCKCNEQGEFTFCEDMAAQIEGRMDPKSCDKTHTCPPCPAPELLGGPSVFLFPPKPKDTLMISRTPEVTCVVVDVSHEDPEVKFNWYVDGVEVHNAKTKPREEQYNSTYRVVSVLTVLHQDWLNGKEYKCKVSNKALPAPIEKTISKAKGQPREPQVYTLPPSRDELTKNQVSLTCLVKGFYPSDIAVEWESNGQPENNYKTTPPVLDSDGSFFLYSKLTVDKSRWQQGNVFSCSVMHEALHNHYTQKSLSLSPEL
Description: (§3) The binding of each clone to the cadherin/Fc chimeric proteins was confirmed by ELISA. Wells of ProBind microtiter plates (Falcon) were coated with either N-cadherin/Fc or E-cadherin/Fc chimeric protein (100 ng/well) or human IgG1 (which contains the Fc fragment) (100 ng/well). After blocking the nonspecific sites with TBS containing 3% BSA and 1.2 mM CaCl2 for 1 h at 37° C., phage clones (10^9 pfu) diluted in TBST containing 3% BSA and 1.2 mM CaCl2 (100 μl/well). Non-coated wells were also used to exclude any phage that bound to the plastic surface. After 1 h incubation at room temperature, wells were washed 3 times with TBST containing 3% BSA and 1.2 mM CaCl2. M13 phage without any insert were used to control the non-specific binding of the phage itself to the target. Monoclonal anti-M13 antibody conjugated to horseradish peroxidase (Amersham Biosciences, Piscataway, N.J.) was diluted in TBST containing 3% BSA and 1.2 mM CaCl2 (1:2,000) and added to each well (100 μl/well). After 1 h incubation at room temperature, wells were washed three times with TBST containing 3% BSA and 1.2 mM CaCl2 and once with TBS containing 1.2 mM CaCl2. Horseradish peroxidase substrate, TMB (Sigma), was added to each well (100 μl/well and after color development the reaction was stopped by addition of 100 μl 0.5 M sulphuric acid to each well. The intensity of the color was measured at 450 nm.
as §2

[3] = molecular target: T3, E-cadherin/Fc chimeric protein (Homo sapiens, UniProt P12830); assay: Cadherin/Fc binding assay: phage ELISA on E-cadherin/Fc; parameters: key: +: Phage bound to the chimeric protein; −: No phage bound to the chimeric protein
T3 construct: extracellular domain of human E-cadherin (Asp155-Ile707); purchased R&D Systems, Minneapolis, Minn
T3 sequence (P12830 155-707): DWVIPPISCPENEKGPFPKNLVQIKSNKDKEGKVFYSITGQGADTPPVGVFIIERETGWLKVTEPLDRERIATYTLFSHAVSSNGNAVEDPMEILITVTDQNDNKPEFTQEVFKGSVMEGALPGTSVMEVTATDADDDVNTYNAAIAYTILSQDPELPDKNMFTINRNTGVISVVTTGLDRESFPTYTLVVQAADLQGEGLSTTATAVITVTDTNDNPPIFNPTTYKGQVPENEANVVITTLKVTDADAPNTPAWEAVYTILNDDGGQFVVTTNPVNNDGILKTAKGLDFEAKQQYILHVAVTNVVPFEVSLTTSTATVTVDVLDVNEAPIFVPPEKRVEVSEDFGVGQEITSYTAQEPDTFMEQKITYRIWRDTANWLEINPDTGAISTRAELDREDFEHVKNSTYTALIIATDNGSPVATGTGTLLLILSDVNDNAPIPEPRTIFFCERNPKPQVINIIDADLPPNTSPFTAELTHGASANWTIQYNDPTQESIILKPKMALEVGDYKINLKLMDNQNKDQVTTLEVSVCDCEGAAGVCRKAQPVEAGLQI
Source text: as §1, §3, §2

[4] = Table 7, Ph.D.-12 clones selected on E-cadherin/Fc
[5] = Table 2, Ph.D.-C7C library clones
[6] = Table 6, Ph.D.-C7C clones selected on E-cadherin/Fc
[7] = Table 3, clones selected in the absence of calcium

Sequence | ELISA Phage Binding to N-Cadherin/Fc Chimeric Protein 1.2 mM calcium [1, 5] | ELISA Phage Binding to N-Cadherin/Fc Chimeric Protein 2 mM EDTA [1, 5] | ELISA Phage Binding to Cadherin/Fc Chimeric Proteins VE− [2, 5] | ELISA Phage Binding to Cadherin/Fc Chimeric Proteins E− [3, 5] | ELISA Phage Binding to Cadherin/Fc Chimeric Proteins N− [1, 6] | ELISA Phage Binding to Cadherin/Fc Chimeric Proteins VE− [2, 6] | ELISA Phage Binding to Cadherin/Fc Chimeric Proteins E− [3, 6] | also measured
SWTWHFPESPPP [Ec 12-01] |  |  |  |  |  |  |  | ELISA Phage Binding to Cadherin/Fc Chimeric Proteins N− [1, 4]: +; ELISA Phage Binding to Cadherin/Fc Chimeric Proteins VE− [2, 4]: −**; ELISA Phage Binding to Cadherin/Fc Chimeric Proteins E− [3, 4]: +*
WEFSICETC [Nc 5] | + | − | − | − |  |  |  | 
WELCVSSSC [Nc 25] | + | − | − | − |  |  |  | 
WELRVSSPC [Nc a7] | + | − | − | − |  |  |  | 
WELVQCLTC [Ec 1] |  |  |  |  | + | − | + | 
WEVCLTEKC [Nc 15] | + | − | − | − |  |  |  | 
WEVRLTEKC [Nc a3] | + | − | − | − |  |  |  | 
WHTSWSDTY [Nc 19] | + | − | − | − |  |  |  | 
WLQPYFPSY [Nc 1] | +* | −** | − | − |  |  |  | phage binding to N-cadherin/Fc chimeric protein by ELISA [1]: positive ELISA signal
WLQPYFPSY [Nc a5] | + | − | − | − |  |  |  | 
WQFCYAQHC [Ec 2] |  |  |  |  | + | − | + | 
WQMVLCPAC [Ec 4] |  |  |  |  | + | − | + | 
WQVCVGAHC [NoCa11] |  |  |  |  |  |  |  | phage binding to N-cadherin/Fc chimeric protein by ELISA [1]: good ELISA signal; also recorded: strong ELISA signal; ELISA Phage Binding to N-Cadherin/Fc Chimeric Protein 1.2 mM calcium [1, 7]: +; ELISA Phage Binding to N-Cadherin/Fc Chimeric Protein 2 mM EDTA [1, 7]: +; ELISA Phage Binding to Cadherin/Fc Chimeric Proteins VE− [2, 7]: −; ELISA Phage Binding to Cadherin/Fc Chimeric Proteins E− [3, 7]: −
WQWCFKATC [Ec 21] |  |  |  |  | + | − | + | 
WTFNFCTAC [Ec a5] |  |  |  |  | + | − | + | 
WTMCYPDTC [Ec 7] |  |  |  |  | + | −** | +* | 
WTVCPIGNC [Nc 8] | + | − | − | − |  |  |  | 
WTWHWPPCC [Ec a22] |  |  |  |  | + | − | + | 
WYVCVGAHC [NoCa1] |  |  |  |  |  |  |  | phage binding to N-cadherin/Fc chimeric protein by ELISA [1]: good ELISA signal; also recorded: strong ELISA signal; ELISA Phage Binding to N-Cadherin/Fc Chimeric Protein 1.2 mM calcium [1, 7]: +*; ELISA Phage Binding to N-Cadherin/Fc Chimeric Protein 2 mM EDTA [1, 7]: +; ELISA Phage Binding to Cadherin/Fc Chimeric Proteins VE− [2, 7]: −; ELISA Phage Binding to Cadherin/Fc Chimeric Proteins E− [3, 7]: −**
